Experimental data published in patent US20210205322A1, “RICTOR-TARGETED THERAPY IN THE MANAGEMENT OF BRAIN METASTASES” (Albert Einstein College of Medicine, priority 2020, published 2021).
“Also recorded” adds a separate entry of the source.

Columns and labels:
lung cancer cell [1] = test: SDF-1α-induced invasion and migration (CXCR4 pathway); format: cell-based
Description: (§1) In vitro Cell Migration and Invasion Assay: The transwell assay was performed according to manufacturer's protocol (Corning, N.Y.). Briefly, the cells were starved for 24 hours and then seeded on the transwell insert (Corning, N.Y.) in 12-well plates. The bottom of the well contained medium with 10% FBS. After 24 hours, the bottom of the inserts were fixed with 70% ethanol and stained with 0.5% crystal violet. The cells were counted triplicate under microscope.
(§2) In the invasion assay, matrigel (0.8 mg/ml) layer was added on the transwell insert first. After the matrigel layer was solidified, the experiment was performed in the same way as the migration assay.

lung cancer cell [2] = test: Invasion and migration with AKT inhibitors; format: cell-based; conditions: for invasion and migration: AKT inhibitor added to inducible RICTOR knockdown; for lung cancer cell invasion and migration: AKT inhibitor alone, FIG. 10A-E
Description: as §1, §2
(§3) AKT is a downstream effector of the RICTOR-mTOCR2 pathway, to determine its role in RICTOR-mediated metastasis, the effects of two structurally different AKT inhibitors, AR-42 and ipatasertib were inestigated.

lung cancer cell [3] = test: Apoptosis (cleaved PARP) with AKT inhibitors; format: cell-based; conditions: for apoptosis: AKT inhibitor added to inducible RICTOR knockdown; for apoptosis (cleaved PARP): AKT inhibitor alone
Description: (§4) Immunoblotting and Antibodies: All antibodies were purchased from Cell Signaling Technology (Boston, Mass.). Cell lysate was harvested using RIPA buffer and the supernatant was subjected for following steps after centrifugation. Proteins were subjected to 10% SDS-PAGE gel and transferred onto […] nitrocellulose membrane (Biorad, Calif., USA) for western blot analysis. After incubation with primary antibody overnight at 4° C., the membrane was washed and incubated with secondary antibodies. The final blots were developed with a chemiluminesence system (Promega, Wis., USA).
as §3

lung cancer cell [4] = test: Cell proliferation with AKT inhibitors; format: cell-based; conditions: 24-hour treatment
From the text: as §3

[5] = test system: RICTOR-amplified H1703 lung cancer cells; test: Transwell cell migration and invasion assay in H1703 cells; format: cell-based; conditions: in vitro; FIG. 7C
Description: as §1, §2

[6] = test system: RICTOR-amplified H23 lung cancer cells; test: Transwell cell migration and invasion assay in H23 cells; format: cell-based; conditions: in vitro; FIG. 7C
Description: as §1, §2

HCC827 OE cells [7] = test: Transwell cell migration and invasion assay in HCC827 OE cells; format: cell-based; conditions: migration and invasion promoted by RICTOR upregulation (doxycycline)
Description: as §1, §2

PC9 parental cells = test: Cell growth assay, combined treatment of sapanisertib and EGFR TKIs; conditions: sapanisertib 5 nM combined with erlotinib, afatinib or osimertinib; FIG. 3C
Description: Clonogenic Survival Assay: Logarithmically growing cells were plated in triplicate. All drugs were added for 72 hours and withdrawn afterwards. After 10-14 days, colonies were fixed with 70% EtOH and stained with 0.5% crystal violet (Sigma Aldrich, St Louis, Mo.). Surviving colonies were defined as colonies containing >50 cells.

[8] = test system: H23 lung cancer cells labeled with luciferase reporter gene; test: In vivo metastasis assay, stereotactic brain injection model; parameters: species or system mouse
From the text: To further test whether RICTOR amplification affects in vivo metastasis, either the inducible H23-R4 or the parental H23 lung cancer cells labeled with luciferase reporter gene (H23-R4-Luc) were implanted in mouse brain stereotactically.

PC9-R4 = test: Drug response by clonogenic survival assay in inducible RICTOR knockdown PC9-R4 cells; format: cell-based; conditions: for inhibitory effects on cell proliferation: RICTOR knockdown cells vs no knockdown
ER cells = test: ER mouse tumor xenograft model; format: in vivo, mice
Description: Xenograft Mouse Studies: Athymic mice (Envigo Laboratory, male, 6-8 weeks old) were inoculated subcutaneously with 5×10^6 NSCLC cells. After 2 days, mice were divided into a vehicle control (water) group and a doxycycline group, with 6 mice in each group. Doxycycline was administered by oral gavage: 100 mg/kg/day. The same volume of water was given to the control group. A total of 20 daily doses were administered in 4 weeks. […] Tumors were measured with calipers twice weekly and the size was calculated as length×width^2/2. The protocol was approved by the Institutional Animal Care and Use Committee.
The in vivo mouse tumor xenograft model was performed using ER cells.

ER3-R4 = test: Western blot analysis (c-PARP) of osimertinib-treated ER3-R4 cells; format: cell-based; conditions: osimertinib-treated cells with RICTOR knockdown; osimertinib 0.5 μM; FIG. 4D
Description: as §4
To evaluate whether RICTOR-induced Axl upregulation was a common resistant mechanism for EGFR TKIs, Axl signaling in osimertinib-treated ER3-R4 and HCC827 OE cells was examined. […] Taken together, RICTOR positively regulates EGFR TKI resistance by upregulating Axl expression, which seems to be a common resistance mechanism shared by EGFR TKIs.

HCC827 OE cells [9] = test: Western blot analysis (c-PARP) of osimertinib-treated HCC827 OE cells; format: cell-based; conditions: osimertinib-treated cells with RICTOR upregulation; osimertinib 50 nM; FIG. 4D
Description: Immunoblotting and Antibodies: All antibodies were purchased from Cell Signaling Technology (Boston, Mass.). Cell lysate was harvested using RIPA buffer and the supernatant was subjected for following steps after centrifugation. Proteins were subjected to 10% SDS-PAGE gel and transferred onto 0.45 μM nitrocellulose membrane (Biorad, Calif., USA) for western blot analysis. After incubation with primary antibody overnight at 4° C., the membrane was washed and incubated with secondary antibodies. The final blots were developed with a chemiluminesence system (Promega, Wis., USA).

HCC827 OE = conditions: RICTOR upregulation with doxycycline; FIG. 2C
Description: Next, it was determined whether RICTOR upregulation could result in EGFR TKI resistance. A doxycycline-inducible RICTOR upregulation model in HCC827 cells (HCC827 OE) was generated.

[10] = test system: erlotinib-resistant HCC827 cell line (ER); test: MTS cell viability and clonogenic survival assays in erlotinib-resistant HCC827 cells (ER); format: cell-based; conditions: Axl-overexpressed ER; FIG. 1I and 1J
Description: Cell Growth and Viability Assay: The MTS proliferation assay was performed as described in manufacture protocol (Promega, Wis., USA). Cells were seeded at a density of 2000 cells per well in 96-well plates. After incubating with drugs for 72 hours, MTS reagent was added and the absorbance was measured at 490 nm. Viable cell numbers were determined using the MTS assay kit according to the manufacturer's protocol.

Compound: c1cc(CN2CCCNCCNCCCNCC2)ccc1CN1CCCNCCNCCCNCC1 [AMD3100]
- SDF-1α-induced invasion and migration (lung cancer cell [1]; FIG. 11B and C): significantly reduced

Compound: CC(C)[C@H](C(=O)Nc1ccc(C(=O)NO)cc1)c1ccccc1 [AR-42]
- invasion and migration (lung cancer cell [2]): significantly further reduced
- lung cancer cell invasion and migration (lung cancer cell [2]): significantly decreased
- apoptosis (lung cancer cell [3]): more pronounced apoptosis
- apoptosis (cleaved PARP) (lung cancer cell [3]): increased apoptosis
- change in cell proliferation (lung cancer cell [4]): did not result in significant change

Compound: CNC(=O)c1cccc(-c2ccc3c(N4CCOC[C@@H]4C)nc(N4CCOC[C@@H]4C)nc3n2)c1 [AZD2014, 3-[2,4-bis[(3S)-3-methylmorpholin-4-yl]pyrido[2,3-d]pyrimidin-7-yl]-N-methylbenzamide]
- migration and invasion [5]: significantly reduced
- migration and invasion [6]: significantly reduced

Compound: Nc1cc(C(F)(F)F)c(-c2nc(N3CCOCC3)nc(N3CCOCC3)n2)cn1 [PQR309, 5-(4,6-dimorpholin-4-yl-1,3,5-triazin-2-yl)-4-(trifluoromethyl)pyridin-2-amine]
- migration and invasion [5]: significantly reduced
- migration and invasion [6]: significantly reduced

Compound: CC(C)n1nc(-c2ccc3oc(N)nc3c2)c2c(N)ncnc21 [TAK228, 5-(4-amino-1-propan-2-yl-3-pyrazolo[3,4-d]pyrimidinyl)-1,3-benzoxazol-2-amine]
- cell migration and invasion (HCC827 OE cells [7]): inhibited
- sensitivity of EGFR TKIs in combined treatment (PC9 parental cells): significantly improved the sensitivity of all three inhibitors
- migration and invasion [5]: significantly reduced
- migration and invasion [6]: significantly reduced
- reduction of tumor growth in the brain ([8]; P<0.01, FIG. 8B): approximately 75%
- near complete responses ([8]; after 4 weeks of daily oral lavage, 3 out 7): 43%
- tumor growth in the brain ([8]; result in words): remarkably reduced the lung cancer growth in the brain; also recorded: significantly reduced tumor growth in the brain

Compound: CN(C)C/C=C/C(=O)Nc1cc2c(Nc3ccc(F)c(Cl)c3)ncnc2cc1O[C@H]1CCOC1 [afatinib]
- decrease of IC50 upon RICTOR knockdown (PC9-R4; PC-9 cells, FIG. 3B): > 10 fold

Compound: C#Cc1cccc(Nc2ncnc3cc(OCCOC)c(OCCOC)cc23)c1 [erlotinib]
- expression of Axl in xenograft tumors (ER cells; combination treatment (RICTOR knockdown and erlotinib), western blot of tumor lysate, FIG. 1H): lowest expression of Axl
- tumor growth (ER cells; combined treatment (RICTOR knockdown by doxycycline and erlotinib), vs either approach alone, P<0.05): markedly blocked tumor growth
- tumor growth (ER cells; erlotinib alone, four weeks of treatment, oral gavage daily): failed to inhibit tumor growth
- inhibitory effects on cell proliferation (PC9-R4): higher inhibitory effects

Compound: CC(C)NC[C@@H](C(=O)N1CCN(c2ncnc3c2[C@H](C)C[C@H]3O)CC1)c1ccc(Cl)cc1 [ipatasertib]
- invasion and migration (lung cancer cell [2]): significantly further reduced
- lung cancer cell invasion and migration (lung cancer cell [2]): significantly decreased
- apoptosis (lung cancer cell [3]): more pronounced apoptosis
- apoptosis (cleaved PARP) (lung cancer cell [3]): increased apoptosis
- change in cell proliferation (lung cancer cell [4]): did not result in significant change

Compound: C=CC(=O)Nc1cc(Nc2nccc(-c3cn(C)c4ccccc34)n2)c(OC)cc1N(C)CCN(C)C [osimertinib]
- apoptosis (c-PARP) (ER3-R4): more pronounced apoptosis
- apoptosis (HCC827 OE cells [9]): less apoptosis
- resistance compared to parental HCC827 cells (HCC827 OE): more resistant
- decrease of IC50 upon RICTOR knockdown (HCC827-R4): > 10 fold
- inhibitory effects on cell proliferation (HCC827-R4): higher inhibitory effects
- inhibitory effects on cell proliferation (PC9-R4): higher inhibitory effects
- drug response of ER [10]: resistance to both inhibitors

Compound: SDF-1α
- migration and invasion (lung cancer cell [1]; activation of the CXCR4 pathway by treatment with SDF-1α): increased migration and invasion
